Assay results published in ChEMBL document CHEMBL3272258, “Quantitative structure-activity relationships. 1. The modified Free-Wilson approach” (J Med Chem, 1976).
Values belong to the compound of their own block, whether it stands above or below them.

What was measured:
Rattus norvegicus [1] = species: Rattus norvegicus; assay: Antagonist activity at rat adrenergic receptor assessed as inhibition of adrenaline-induced response
Rattus norvegicus [2] = species: Rattus norvegicus; assay: Binding affinity to rat thyroid hormone receptor
[3] = test system: Trichophyton mentagrophytes; assay: Antifungal activity against Trichophyton mentagrophytes assessed as growth inhibition measured for 14 days by tube dilution method; type: functional
[4] = n-octanol-water partition coefficient, log P of the compound; type: physicochemical

log(activity) (Rattus norvegicus [2]): -1
SMILES: NC(Cc1cc(Cl)c(Oc2cc(I)c(O)c(I)c2)c(Cl)c1)C(=O)O (racemic)

log(activity) (Rattus norvegicus [2]): 0.38
SMILES: NC(Cc1cc(I)c(Oc2ccc(O)c(F)c2)c(I)c1)C(=O)O (racemic)

log(activity) (Rattus norvegicus [2]): 2.3
SMILES: NC(Cc1cc(I)c(Oc2ccc(O)c(Br)c2)c(I)c1)C(=O)O (racemic)

log(activity) (Rattus norvegicus [2]): 2
SMILES: NC(Cc1cc(I)c(Oc2cc(I)c(O)c(I)c2)c(I)c1)C(=O)O (racemic)

log(activity) (Rattus norvegicus [2]): 2.11
SMILES: NC(Cc1cc(Br)c(Oc2ccc(O)c(I)c2)c(Br)c1)C(=O)O (racemic)

logP [4]: 1.91
SMILES: Cc1cc(OCC(O)CO)ccc1Cl (configuration not stated)
log(1/C) [3]: 2.9

logP [4]: 2.16
SMILES: CC(O)COc1ccc(Cl)cc1 (configuration not stated)
log(1/C) [3]: 2.81

log(activity) (Rattus norvegicus [2]): 1.1
SMILES: NC(Cc1cc(Br)c(Oc2cc(I)c(O)c(I)c2)c(Br)c1)C(=O)O (racemic)

logP [4]: 2.67
SMILES: Cc1cc(OCC(C)O)ccc1Cl (configuration not stated)
log(1/C) [3]: 3.3

log(activity) (Rattus norvegicus [2]): -0.05
SMILES: NC(Cc1cc(I)c(Oc2cc(Cl)c(O)c(Cl)c2)c(I)c1)C(=O)O (racemic)

log(activity) (Rattus norvegicus [2]): -0.43
SMILES: NC(Cc1cc(I)c(Oc2ccc(O)cc2)c(I)c1)C(=O)O (racemic)

log(activity) (Rattus norvegicus [2]): 1
SMILES: NC(Cc1cc(I)c(Oc2cc(Br)c(O)c(Br)c2)c(I)c1)C(=O)O (racemic)

logP [4]: 1.4
SMILES: OCC(O)COc1ccc(Cl)cc1 (configuration not stated)
log(1/C) [3]: 2.31

log(activity) (Rattus norvegicus [2]): 2.74
SMILES: NC(Cc1cc(I)c(Oc2ccc(O)c(I)c2)c(I)c1)C(=O)O (racemic)

log(activity) (Rattus norvegicus [2]): -0.29
SMILES: NC(Cc1cc(Br)c(Oc2cc(Br)c(O)c(Br)c2)c(Br)c1)C(=O)O (racemic)

logP [4]: 2.36
SMILES: OCCCOc1ccc(Cl)cc1
log(1/C) [3]: 3.07

log(activity) (Rattus norvegicus [2]): 1.64
SMILES: NC(Cc1cc(Br)c(Oc2ccc(O)c(Br)c2)c(Br)c1)C(=O)O (racemic)

log(activity) (Rattus norvegicus [2]): 0.26
SMILES: NC(Cc1cc(I)c(Oc2cc(F)c(O)c(F)c2)c(I)c1)C(=O)O (racemic)

logP [4]: 1.97
SMILES: Cc1cccc(Cl)c1OCC(O)CO (configuration not stated)
log(1/C) [3]: 2.33

log(activity) (Rattus norvegicus [2]): 1.45
SMILES: NC(Cc1cc(I)c(Oc2cc(F)c(O)c(I)c2)c(I)c1)C(=O)O (racemic)

logP [4]: 1.88
SMILES: OCC(O)COc1c(Cl)cccc1Cl (configuration not stated)
log(1/C) [3]: 2.37

More lines, now with the values behind:

SMILES: Cc1ccc(C(Br)CN(C)C)cc1C (configuration not stated)
log(1/C) (Rattus norvegicus [1]): 9.3

SMILES: CN(C)CC(Br)c1ccc(Cl)c(Cl)c1 (configuration not stated)
log(1/C) (Rattus norvegicus [1]): 8.89

SMILES: Cc1cc(OCC(C)O)cc(C)c1Cl (configuration not stated)
log(1/C) [3]: 3.68
logP [4]: 3.18

SMILES: Cc1cc(Cl)ccc1OCC(O)CO (configuration not stated)
log(1/C) [3]: 2.33
logP [4]: 2.08

SMILES: Cc1cc(C(Br)CN(C)C)ccc1F (configuration not stated)
log(1/C) (Rattus norvegicus [1]): 8.82

SMILES: CN(C)CC(Br)c1ccc(Br)c(Cl)c1 (configuration not stated)
log(1/C) (Rattus norvegicus [1]): 9

SMILES: Cc1ccccc1OCCCO
log(1/C) [3]: 2.79
logP [4]: 2.34

SMILES: CC(O)COc1c(Cl)cccc1Cl (configuration not stated)
log(1/C) [3]: 3.04
logP [4]: 2.64

SMILES: CN(C)CC(Br)c1ccc(I)cc1 (configuration not stated)
log(1/C) (Rattus norvegicus [1]): 9.25

SMILES: Cc1cc(Cl)c(OCCCO)c(Cl)c1
log(1/C) [3]: 3.67
logP [4]: 3.36

SMILES: CN(C)CC(Br)c1ccc(Br)c(Br)c1 (configuration not stated)
log(1/C) (Rattus norvegicus [1]): 9.35

SMILES: OCC(O)COc1ccccc1Cl (configuration not stated)
log(1/C) [3]: 2.31
logP [4]: 1.29

SMILES: OCC(O)COc1ccc(Cl)cc1Cl (configuration not stated)
log(1/C) [3]: 2.61
logP [4]: 1.99

SMILES: Cc1cccc(Cl)c1OCCCO
log(1/C) [3]: 2.78
logP [4]: 2.93

SMILES: Cc1cccc(C(Br)CN(C)C)c1 (configuration not stated)
log(1/C) (Rattus norvegicus [1]): 8.46

SMILES: Cc1ccccc1OCC(O)CO (configuration not stated) [MEPHENESIN]
log(1/C) [3]: 2.26
logP [4]: 1.38

SMILES: CN(C)CC(Br)c1ccc(Br)cc1 (configuration not stated)
log(1/C) (Rattus norvegicus [1]): 8.89

SMILES: Cc1cc(Cl)c(OCC(O)CO)c(Cl)c1 (configuration not stated)
log(1/C) [3]: 3.1
logP [4]: 2.4

SMILES: CN(C)CC(Br)c1ccccc1 (configuration not stated)
log(1/C) (Rattus norvegicus [1]): 7.46

SMILES: Cc1ccc(C(Br)CN(C)C)cc1Br (configuration not stated)
log(1/C) (Rattus norvegicus [1]): 9.52

SMILES: CN(C)CC(Br)c1cccc(Cl)c1 (configuration not stated)
log(1/C) (Rattus norvegicus [1]): 8.16

SMILES: Cc1cc(Cl)cc(C)c1OCCCO
log(1/C) [3]: 3.51
logP [4]: 3.72

SMILES: Cc1ccccc1OCC(C)O (configuration not stated)
log(1/C) [3]: 2.46
logP [4]: 2.14

SMILES: CC(O)COc1ccc(Cl)cc1Cl (configuration not stated)
log(1/C) [3]: 3.35
logP [4]: 2.75

SMILES: CN(C)CC(Br)c1cccc(F)c1 (configuration not stated)
log(1/C) (Rattus norvegicus [1]): 7.52

SMILES: CC(O)COc1ccccc1Cl (configuration not stated)
log(1/C) [3]: 2.84
logP [4]: 2.05

SMILES: Cc1cc(Cl)cc(C)c1OCC(C)O (configuration not stated)
log(1/C) [3]: 3.51
logP [4]: 3.52

SMILES: Cc1cc(Cl)c(OCC(C)O)c(Cl)c1 (configuration not stated)
log(1/C) [3]: 3.47
logP [4]: 3.16

SMILES: Cc1cc(OCC(O)CO)cc(C)c1Cl (configuration not stated)
log(1/C) [3]: 3.24
logP [4]: 2.42

SMILES: CN(C)CC(Br)c1cccc(Br)c1 (configuration not stated)
log(1/C) (Rattus norvegicus [1]): 8.3

SMILES: Cc1cc(OCCCO)cc(C)c1Cl
log(1/C) [3]: 3.93
logP [4]: 3.38

SMILES: CN(C)CC(Br)c1ccc(Cl)cc1 (configuration not stated)
log(1/C) (Rattus norvegicus [1]): 8.68

SMILES: CN(C)CC(Br)c1ccc(F)c(Cl)c1 (configuration not stated)
log(1/C) (Rattus norvegicus [1]): 8.19

SMILES: CN(C)CC(Br)c1ccc(F)c(Br)c1 (configuration not stated)
log(1/C) (Rattus norvegicus [1]): 8.57

SMILES: CN(C)CC(Br)c1ccc(F)cc1 (configuration not stated)
log(1/C) (Rattus norvegicus [1]): 8.16

SMILES: Cc1ccc(C(Br)CN(C)C)cc1 (configuration not stated)
log(1/C) (Rattus norvegicus [1]): 9.3

SMILES: CN(C)CC(Br)c1cccc(I)c1 (configuration not stated)
log(1/C) (Rattus norvegicus [1]): 8.4

SMILES: Cc1cc(C(Br)CN(C)C)ccc1Cl (configuration not stated)
log(1/C) (Rattus norvegicus [1]): 8.96

SMILES: Cc1cc(C(Br)CN(C)C)ccc1Br (configuration not stated)
log(1/C) (Rattus norvegicus [1]): 9.22

SMILES: Cc1cc(Cl)ccc1OCC(C)O (configuration not stated)
log(1/C) [3]: 3.3
logP [4]: 2.84

SMILES: CN(C)CC(Br)c1ccc(Cl)c(Br)c1 (configuration not stated)
log(1/C) (Rattus norvegicus [1]): 8.92

SMILES: Cc1cccc(Cl)c1OCC(C)O (configuration not stated)
log(1/C) [3]: 2.7
logP [4]: 2.73

SMILES: Cc1cc(Cl)cc(C)c1OCC(O)CO (configuration not stated)
log(1/C) [3]: 2.76
logP [4]: 2.76
